Patent US9056876B2, “Substituted 1H-pyrazolo[3′,4′,4,5]thieno[2,3-b]pyridin-3-amine analogs as positive allosteric modulators of the muscarinic acetylcholine receptor M4” (VANDERBILT UNIVERSITY, priority 2011, dated 2015)

Target: T1, mAChR M4 (UniProt P08173)
T1 construct: hM1 and hM4 cDNAs were purchased from Missouri S&T cDNA Resource
T1 sequence (P08173 1-479): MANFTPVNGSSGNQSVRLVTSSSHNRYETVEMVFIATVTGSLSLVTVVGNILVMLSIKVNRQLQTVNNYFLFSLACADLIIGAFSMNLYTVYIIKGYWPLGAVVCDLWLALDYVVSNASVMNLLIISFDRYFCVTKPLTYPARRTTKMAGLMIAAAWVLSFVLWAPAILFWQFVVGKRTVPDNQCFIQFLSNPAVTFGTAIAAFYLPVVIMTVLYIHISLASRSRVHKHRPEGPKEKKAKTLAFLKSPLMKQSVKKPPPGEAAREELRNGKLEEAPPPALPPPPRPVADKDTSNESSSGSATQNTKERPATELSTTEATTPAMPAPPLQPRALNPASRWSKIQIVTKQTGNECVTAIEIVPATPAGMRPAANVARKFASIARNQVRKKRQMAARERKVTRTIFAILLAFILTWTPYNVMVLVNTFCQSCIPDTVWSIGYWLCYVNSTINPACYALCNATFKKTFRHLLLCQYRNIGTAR
Assay: mAChR M4 cell-based functional assay (calcium mobilization, Fluo-4, FDSS)
Settings: for Emax (%)*: % ACh maximum at 30 μM; for pEC50: positive allosteric modulator activity, EC20 acetylcholine response; for pEC50 / EC50: CHO-K1 cells; for EC50: positive allosteric modulator activity: concentration-dependent increase in the EC20 acetylcholine response, >10 μM estimated for low potency (no plateau)
From the text: Chinese hamster ovary (CHO-K1) cells stably expressing rat (r)M1 were purchased from the American Type Culture Collection and cultured according to their indicated protocol. CHO cells stably expressing human (h)M2, hM3, and hM5 were described previously (Levey A I, et al., (1991) J Neurosci 11:3218-3226.); hM1 and hM4 cDNAs were purchased from Missouri S&T cDNA Resource; rM4 cDNA was provided by T. I. Bonner (National Institutes of Health, Bethesda, Md.). rM2 and rM3 were cloned from a rat brain cDNA library and sequence verified. hM1, rM2, rM3, hM4, and rM4 cDNAs were used to stably transfect CHO-K1 cells purchased from the American Type Culture Collection using Lipofectamine-2000. To make stable rM2, hM2, rM3, hM4, and rM4 cell lines for use in calcium mobilization assays, these cells also were stably transfected with a chimeric G-protein (Gqi5) (provided by B. R. Conklin, University of California, San Francisco) using Lipofectamine 2000. rM1, hM1, rM3, hM3, rM5, and hM5 cells were grown in Ham's F-12 medium containing 10% heat-inactivated fetal bovine serum (FBS), 20 mM HEPES, and 50 µg/mL G418 sulfate. rM2-Gqi5, hM2-Gqi5, and hM4-Gqi5 cells were grown in the same medium also containing 500 µg/mL Hygromycin B. Stable rM4-Gqi5 cells were grown in DMEM containing 10% heat-inactivated FBS, 20 mM HEPES, 400 µg/mL G418 sulfate, and 500 µg/mL Hygromycin B.
For high throughput measurement of agonist-evoked increases in intracellular calcium, CHO-K1 cells stably expressing the target muscarinic receptor were plated in growth medium lacking G418 and hygromycin at 15,000 cells/20 μL/well in Greiner 384-well black-walled, tissue culture (TC)-treated, clear-bottom plates (VWR). Cells were incubated overnight at 37° C. and 5% CO2. The next day, cells were washed using an ELX 405 (BioTek) with four washes (80 μL) of assay buffer then aspirated to 20 μL. Next, […] of 16 μM Fluo-4/acetoxymethyl ester (Invitrogen, Carlsbad, Calif.) prepared as a 2.3 mM stock in DMSO and mixed in a 1:1 ratio with 10% (w/v) Pluronic F-127 and diluted in assay buffer was added to the wells and the cell plates were incubated for 50 min at 37° C. and 5% CO2. Dye was removed by washing with the ELX 405 (four 80 μL washes of assay buffer) then aspirated to 20 μL. Compound master plates were formatted in an 11 point CRC format (1:3 dilutions) in 100% DMSO with a starting concentration of 10 mM using the BRAVO liquid handler (Agilent). Test compound CRCs were then transferred to daughter plates (240 nL) using the Echo acoustic plate reformatter (Labcyte, Sunnyvale, Calif.) and then diluted into assay buffer (40 μL) to a 2× stock using a Thermo Fisher Combi (Thermo Fisher Scientific, Waltham, Mass.).
Calcium flux was measured using the Functional Drug Screening System (FDSS) 6000 (Hamamatsu Corporation, Tokyo, Japan) as an increase in the fluorescent static ratio. Compounds were applied to cells (20 μL, 2×) using the automated system of the FDSS 6000 at 4 s into the 300 s protocol and the data were collected at 1 Hz. At 144 s into the 300 s protocol, 10 μL of an EC20 concentration of the muscarinic receptor agonist acetylcholine was added (5×), followed by the addition of 12 μL an EC80 concentration of acetylcholine at the 230 s time point (5×). Agonist activity was analyzed as a concentration-dependent increase in calcium mobilization upon compound addition. Positive allosteric modulator activity was analyzed as a concentration-dependent increase in the EC20 acetylcholine response. Antagonist activity was analyzed as a concentration-dependent decrease in the EC80 acetylcholine response. Concentration-response curves were generated using a four-parameter logistical equation in XLfit curve fitting software (IDBS, Bridgewater, N.J.) for Excel (Microsoft, Redmond, Wash.) or Prism (GraphPad Software, Inc., San Diego, Calif.). […]

Cc1nc2sc3c(N)nn(C)c3c2c(C)c1Cl [Compound 23, 7-chloro-1,6,8-trimethyl-1H-pyrazolo[3′,4′:4,5]thieno[2,3-b]pyridin-3-amine]
Emax (%)*: 50%
pEC50: 6.07
EC50: 850 nM

Cc1nc2sc3c(NCCC(C)C)nn(C)c3c2c(C)c1Cl [Compound 24, 7-chloro-N-isopentyl-1,6,8-trimethyl-1H-pyrazolo[3′,4′:4,5]thieno[2,3-b]pyridin-3-amine]
Emax (%)*: 61%
pEC50: <5.00
EC50: > 10000 nM

Cc1nc2sc3c(NCc4ccco4)nn(C)c3c2c(C)c1Cl [Compound 25, 7-chloro-N-(furan-2-ylmethyl)-1,6,8-trimethyl-1H-pyrazolo[3′,4′:4,5]thieno[2,3-b]pyridin-3-amine]
Emax (%)*: 57%
pEC50: 6.66
EC50: 220 nM

Cc1nc2sc3c(NCc4cccs4)nn(C)c3c2c(C)c1Cl [Compound 26, 7-chloro-1,6,8-trimethyl-N-(thiophen-2-ylmethyl)-1H-pyrazolo[3′,4′:4,5]thieno[2,3-b]pyridin-3-amine]
Emax (%)*: 42%
pEC50: <5.00
EC50: > 10000 nM

Cc1nc2sc3c(NCc4ccc(F)c(F)c4)nn(C)c3c2c(C)c1Cl [Compound 27, 7-chloro-N-(3,4-difluorobenzyl)-1,6,8-trimethyl-1H-pyrazolo[3′,4′:4,5]thieno[2,3-b]pyridin-3-amine]
Emax (%)*: 46%
pEC50: <5.00
EC50: > 10000 nM

Cc1ccnc(Nc2nn(C)c3c2sc2nc(C)c(Cl)c(C)c23)n1 [Compound 28, 7-chloro-1,6,8-trimethyl-N-(4-methylpyrimidin-2-yl)-1H-pyrazolo[3′,4′:4,5]thieno[2,3-b]pyridin-3-amine]
Emax (%)*: 36%
pEC50: <5.00
EC50: > 10000 nM

Cc1cc(C)c2c(n1)sc1c(N)nn(C)c12 [Compound 29, 1,6,8-trimethyl-1H-pyrazolo[3′,4′:4,5]thieno[2,3-b]pyridin-3-amine]
Emax (%)*: 49%
pEC50: <5.00
EC50: > 10000 nM

Cc1cc(C)c2c(n1)sc1c(NCC3CC3)nn(C)c12 [Compound 30, N-(cyclopropylmethyl)-1,6,8-trimethyl-1H-pyrazolo[3′,4′:4,5]thieno[2,3-b]pyridin-3-amine]
Emax (%)*: 73%
pEC50: 6.80
EC50: 160 nM

Cc1cc(C)c2c(n1)sc1c(NCCC(C)C)nn(C)c12 [Compound 32, N-isopentyl-1,6,8-trimethyl-1H-pyrazolo[3′,4′:4,5]thieno[2,3-b]pyridin-3-amine]
Emax (%)*: 81%
pEC50: 6.72
EC50: 190 nM

Cc1cc(C)c2c(n1)sc1c(NCc3ccccc3)nn(C)c12 [Compound 33, N-benzyl-1,6,8-trimethyl-1H-pyrazolo[3′,4′:4,5]thieno[2,3-b]pyridin-3-amine]
Emax (%)*: 75%
pEC50: 6.89
EC50: 130 nM

Cc1cc(C)c2c(n1)sc1c(NCc3cccs3)nn(C)c12 [Compound 34, 1,6,8-trimethyl-N-(thiophen-2-ylmethyl)-1H-pyrazolo[3′,4′:4,5]thieno[2,3-b]pyridin-3-amine]
Emax (%)*: 81%
pEC50: 7.07
EC50: 86 nM

Cc1cc(C)c2c(n1)sc1c(NCc3ccco3)n[nH]c12 [Compound 35, N-(furan-2-ylmethyl)-6,8-dimethyl-1H-pyrazolo[3′,4′:4,5]thieno[2,3-b]pyridin-3-amine]
Emax (%)*: 80%
pEC50: 5.92
EC50: 1200 nM

Cc1cc(C)c2c(n1)sc1c(NCc3cccs3)n[nH]c12 [Compound 36, 6,8-dimethyl-N-(thiophen-2-ylmethyl)-1H-pyrazolo[3′,4′:4,5]thieno[2,3-b]pyridin-3-amine]
Emax (%)*: 78%
pEC50: 6.20
EC50: 630 nM

Cc1cc(C)c2c(n1)sc1c(NCC(C)C)n[nH]c12 [Compound 37, N-isobutyl-6,8-dimethyl-1H-pyrazolo[3′,4′:4,5]thieno[2,3-b]pyridin-3-amine]
Emax (%)*: 53%
pEC50: 5.43
EC50: 3700 nM

COc1ccc(CNc2nn(C)c3c2sc2nc(C)cc(C)c23)cc1 [Compound 38, N-(4-methoxybenzyl)-1,6,8-trimethyl-1H-pyrazolo[3′,4′:4,5]thieno[2,3-b]pyridin-3-amine]
Emax (%)*: 72%
pEC50: 6.66
EC50: 220 nM

Cc1cc(C)c2c(n1)sc1c(NCc3ccc(F)cc3)nn(C)c12 [Compound 39, N-(4-fluorobenzyl)-1,6,8-trimethyl-1H-pyrazolo[3′,4′:4,5]thieno[2,3-b]pyridin-3-amine]
Emax (%)*: 68%
pEC50: 6.30
EC50: 500 nM

Cc1cc(C)c2c(n1)sc1c(NCc3ccco3)nn(C)c12 [Compound 40, N-(furan-2-ylmethyl)-1,6,8-trimethyl-1H-pyrazolo[3′,4′:4,5]thieno[2,3-b]pyridin-3-amine]
Emax (%)*: 85%
pEC50: 6.96
EC50: 110 nM

Cc1cc(C)c2c(n1)sc1c(NC(C)C)nn(C)c12 [Compound 41, N-isopropyl-1,6,8-trimethyl-1H-pyrazolo[3′,4′:4,5]thieno[2,3-b]pyridin-3-amine]
Emax (%)*: 87%
pEC50: 6.11
EC50: 780 nM

Cc1cc(C)c2c(n1)sc1c(NCc3ccncc3)nn(C)c12 [Compound 42, 1,6,8-trimethyl-N-(pyridin-4-ylmethyl)-1H-pyrazolo[3′,4′:4,5]thieno[2,3-b]pyridin-3-amine]
Emax (%)*: 93%
pEC50: 6.82
EC50: 150 nM

Cc1ccc2c(n1)sc1c(NCC3CC3)n[nH]c12 [Compound 43, N-(cyclopropylmethyl)-6-methyl-1H-pyrazolo[3′,4′:4,5]thieno[2,3-b]pyridin-3-amine]
Emax (%)*: 64%
pEC50: 5.35
EC50: 4500 nM

Cc1ccc2c(n1)sc1c(NCc3ccco3)n[nH]c12 [Compound 44, N-(furan-2-ylmethyl)-6-methyl-1H-pyrazolo[3′,4′:4,5]thieno[2,3-b]pyridin-3-amine]
Emax (%)*: 62%
pEC50: 5.30
EC50: 5000 nM

Cc1ccc2c(n1)sc1c(NC(C)C)n[nH]c12 [Compound 45, N-isopropyl-6-methyl-1H-pyrazolo[3′,4′:4,5]thieno[2,3-b]pyridin-3-amine]
Emax (%)*: 37%
pEC50: <5.00
EC50: > 10000 nM
